Values of other authors, collected in patent US20160228385A1, “PURIFIED CBD AND CBDA, AND METHODS, COMPOSITIONS AND PRODUCTS EMPLOYING CBD OR CBDA” (COLORADO CAN LLC, priority 2015, published 2016).

Tested on: human subjects seeking to quit smoking
Details: CBD administered via an inhaler, compared to no reduction with placebo inhaler

SMILES: C=C(C)[C@@H]1CCC(C)=C[C@H]1c1c(O)cc(CCCCC)cc1O [CBD, Cannabidiol]
- reduction of cigarette use: 40%
